For experiment [1], the system named is hormone-receptor-positive breast cancer. To be noted: cited from earlier work.
Experiment [2] concerns tumors of the transfectant IGF-1R over-expressing NIH-3T3 cell line. Briefly: 3T3-IGF-1R tumor growth in vivo (athymic mice, intraperitoneal administration). To be noted: FIG. 5. The procedure: When incubated with cells, fully human monoclonal antibodies that are highly specific and potent inhibitors of IGF-1-induced receptor autophosphorylation induced down-regulation of IGF-1R by receptor internalization. […] The serum concentration of anti-IGF-1R antibodies that led to 50% growth inhibition was 20 μg/ml at Day 1, and 13 μg/ml at Day 9. Similar anti-tumor studies were extended to human tumor xenograft models. As a single agent, anti-IGF-1R antibodies inhibited the growth of several xenograft models including breast, lung and colorectal carcinomas.

Another experiment concerns the target T1, IGF-1R (Homo sapiens, UniProt P08069).
T1 construct: expressed in transfected cells; host or cells: NIH-3T3 (mouse fibroblast) transfectant, grown as tumors in athymic mice
The experiment can be described thus: IGF-1R phosphotyrosine signal in 3T3-IGF-1R tumors. To be noted: FIG. 4. It is filed as in vivo.

Read-outs that look alike come from different tables or passages of the source.

This is an account of results in US7618626B2, “Combination treatment for non-hematologic malignancies” (Pfizer Inc, priority 2004, dated 2009).

As for `CC/C(=C(\c1ccccc1)c1ccc(OCCN(C)C)cc1)c1ccccc1` [Tamoxifen], the reduction of recurrence in experiment [1] (post-menopausal women) is listed as 40-50%; in experiment [1] (pre-menopausal women), 30-50%.

B1: 2.13.2: fully human anti-IGF-1R monoclonal antibody; hybridoma ATCC PTA-2788 (antibody)
heavy: EVQLLESGGGLVQPGGSLRLSCTASGFTFSSYAMNWVRQAPGKGLEWVSAISGSGGTTFYADSVKGRFTISRDNSRTTLYLQMNSLRAEDTAVYYCAKDLGWSDSYYYYYGMDVWGQGTTVTVSSASTKGPSVFPLAPCSRSTSESTAALGCLVKDYFPEPVTVSWNSGALTSGVHTFPAVLQSSGLYSLSSVVTVPSSNFGTQTYTCNVDHKPSNTKVDKTVERKCCVECPPCPAPPVAGPSVFLFPPKPKDTLMISRTPEVTCVVVDVSHEDPEVQFNWYVDGVEVHNAKTKPREEQFNSTFRVVSVLTVVHQDWLNGKEYKCKVSNKGLPAPIEKTISKTKGQPREPQVYTLPPSREEMTKNQVSLTCLVKGFYPSDIAVEWESNGQPENNYKTTPPMLDSDGSFFLYSKLTVDKSRWQQGNVFSCSVMHEALHNHYTQKSLSLSPGK
light: DIQMTQFPSSLSASVGDRVTITCRASQGIRNDLGWYQQKPGKAPKRLIYAASRLHRGVPSRFSGSGSGTEFTLTISSLQPEDFATYYCLQHNSYPCSFGQGTKLEIKRTVAAPSVFIFPPSDEQLKSGTASVVCLLNNFYPREAKVQWKVDNALQSGNSQESVTEQDSKDSTYSLSSTLTLSKADYEKHKVYACEVTHQGLSSPVTKSFNRGEC
For the molecule B1, the “3T3-IGF-1R tumor growth in vivo” value in experiment [2] is recorded as “inhibits 3T3-IGF-1R tumor growth in vivo”. Besides, the “IGF-1R phosphotyrosine signal in 3T3-IGF-1R tumors” value with IGF-1R is “reduce IGF-1R phosphotyrosine signal”.
